In the experiment the test system is HIV in the HTLV-1 transformed cell line MT-4. Nature of the experiment: organism not typed. In kind it is cell-based. Particulars: MT4, 96 h, MT-4 cells; luciferase/cell titer glo readout after 96 hours; 10 point dose response.
As to `Cc1ccc(-c2c(C)c3c(c(C)c2[C@H](OC(C)(C)C)C(=O)O)CN(C(=O)N(C)C2CCCCC2)C3)cc1` [Example 67, (2S)-2-(tert-butoxy)-2-{2-[cyclohexyl(methyl)carbamoyl]-4,7-dimethyl-6-(4-methylphenyl)-2,3-dihydro-1H-isoindol-5-yl}acetic acid], the IC50 (in general, the midpoint of a concentration-inhibition curve) amounted to 55 nM. This counts as double-digit nanomolar. The value for `Cc1ccc(-c2c(C)c3c(c(C)c2[C@H](OC(C)(C)C)C(=O)O)CN(C(=O)N2CCC(F)(F)C2)C3)cc1` [Example 68, (2S)-2-(tert-butoxy)-2-[2-(3,3-difluoropyrrolidine-1-carbonyl)-4,7-dimethyl-6-(4-methylphenyl)-2,3-dihydro-1H-isoindol-5-yl]acetic acid] was 8 nM; that for `Cc1ccc(-c2c(C)c3c(c(C)c2[C@H](OC(C)(C)C)C(=O)O)CN(C(=O)N2CCCC[C@H]2C)C3)cc1` [Example 69, (2S)-2-(tert-butoxy)-2-[4,7-dimethyl-6-(4-methylphenyl)-2-[(2R)-2-methylpiperidine-1-carbonyl]-2,3-dihydro-1H-isoindol-5-yl]acetic acid] was 14 nM; that for `Cc1ccc(-c2c(C)c3c(c(C)c2[C@H](OC(C)(C)C)C(=O)O)CN(C(=O)NC2CCC2)C3)cc1` [Example 70, (2S)-2-(tert-butoxy)-2-[2-(cyclobutylcarbamoy)-4,7-dimethyl-6-(4-methylphenyl)-2,3-dihydro-1H-isoindol-5-yl]acetic acid] was 34 nM. As for `Cc1ccc(-c2c(C)c3c(c(C)c2[C@H](OC(C)(C)C)C(=O)O)CN(C(=O)N2CCN(C)CC2)C3)cc1` [Example 71, (2S)-2-(tert-butoxy)-2-[4,7-dimethyl-6-(4-methylphenyl)-2-(4-methylpiperazine-1-carbonyl)-2,3-dihydro-1H-isoindol-5-yl]acetic acid], the figure is 276 nM. The value for `Cc1ccc(-c2c(C)c3c(c(C)c2[C@H](OC(C)(C)C)C(=O)O)CN(C(=O)N2CCOC[C@H]2C)C3)cc1` [Example 72, (2S)-2-(tert-butoxy)-2-{4,7-dimethyl-2-[(3R)-3-methylmorpholine-4-carbonyl]-6-(4-methylphenyl)-2,3-dihydro-1H-isoindol-5-yl}acetic acid] was 16 nM. For `Cc1ccc(-c2c(C)c3c(c(C)c2[C@H](OC(C)(C)C)C(=O)O)CN(C(=O)N2C[C@H](C)O[C@@H](C)C2)C3)cc1` [Example 73, (2S)-2-(tert-butoxy)-2-{2-[(2S,6S)-2,6-dimethylmorpholine-4-carbonyl]-4,7-dimethyl-6-(4-methylphenyl)-2,3-dihydro-1H-isoindol-5-yl}acetic acid], half-maximal inhibition (IC50) was put at 26 nM. This IC50 is about 1.6-fold higher than that of the molecule before. As for `Cc1ccc(-c2c(C)c3c(c(C)c2[C@H](OC(C)(C)C)C(=O)O)CN(C(=O)NCC(C)(C)C)C3)cc1` [Example 74, (2S)-2-(tert-butoxy)-2-{2-[(2,2-dimethylpropyl)carbamoyl]-4,7-dimethyl-6-(4-methylphenyl)-2,3-dihydro-1H-isoindol-5-yl}acetic acid], the figure is 21 nM.

In turn, `Cc1ccc(-c2c(C)c3c(c(C)c2[C@H](OC(C)(C)C)C(=O)O)CN(C(=O)N2CC4CCC(C2)O4)C3)cc1` [Example 75, (2S)-2-(tert-butoxy)-2-[4,7-dimethyl-6-(4-methylphenyl)-2-{8-oxa-3-azabicyclo[3.2.1]octane-3-carbonyl}-2,3-dihydro-1H-isoindol-5-yl]acetic acid] registered an IC50 of 34 nM. This IC50 is about 1.6-fold higher than that of the molecule before. As for `Cc1ccc(-c2c(C)c3c(c(C)c2[C@H](OC(C)(C)C)C(=O)O)CN(C(=O)N2CCCOCC2)C3)cc1` [Example 76, (2S)-2-(tert-butoxy)-2-[4,7-dimethyl-6-(4-methylphenyl)-2-(1,4-oxazepane-4-carbonyl)-2,3-dihydro-1H-isoindol-5-yl]acetic acid], the figure is 12 nM.

In turn, `Cc1ccc(-c2c(C)c3c(c(C)c2[C@H](OC(C)(C)C)C(=O)O)CN(C(=O)N2CC[C@H](O)C2)C3)cc1` [Example 77, (2S)-2-(tert-butoxy)-2-{2-[(3S)-3-hydroxypyrrolidine-1-carbonyl]-4,7-dimethyl-6-(4-methylphenyl)-2,3-dihydro-1H-isoindol-5-yl}acetic acid] had a half-inhibitory concentration (IC50) of 160 nM. As for `Cc1ccc(-c2c(C)c3c(c(C)c2[C@H](OC(C)(C)C)C(=O)O)CN(C(=O)N(C)CC2CCCCC2)C3)cc1` [Example 78, (2S)-2-(tert-butoxy)-2-{2-[(cyclohexylmethyl)(methyl)carbamoyl]-4,7-dimethyl-6-(4-methylphenyl)-2,3-dihydro-1H-isoindol-5-yl}acetic acid], the figure is 126 nM; as for `Cc1ccc(-c2c(C)c3c(c(C)c2[C@H](OC(C)(C)C)C(=O)O)CN(C(=O)NCCOCc2ccccc2)C3)cc1` [Example 79, (2S)-2-(2-{[2-(benzyloxy)ethyl]carbamoyl}-4,7-dimethyl-6-(4-methylphenyl)-2,3-dihydro-1H-isoindol-5-yl)-2-(tert-butoxy)acetic acid], 231 nM.

Turning to `Cc1ccc(-c2c(C)c3c(c(C)c2[C@H](OC(C)(C)C)C(=O)O)CN(C(=O)N2CCN4CCC[C@@H]4C2)C3)cc1` [Example 80, (2S)-2-{2-[(8aR)-octahydropyrrolo[1,2-a]piperazine-2-carbonyl]-4,7-dimethyl-6-(4-methylphenyl)-2,3-dihydro-1H-isoindol-5-yl}-2-(tert-butoxy)acetic acid], the midpoint of inhibition, the IC50, lay at 381 nM. This IC50 is about 1.6-fold higher than that of the molecule before. The value for `Cc1ccc(-c2c(C)c3c(c(C)c2[C@H](OC(C)(C)C)C(=O)O)CN(C(=O)N2CCC(C)CC2)C3)cc1` [Example 81, (S)-2-(tert-butoxy)-2-(4,7-dimethyl-2-(4-methylpiperidine-1-carbonyl)-6-(p-tolyl)isoindolin-5-yl)acetic acid] was 16 nM; that for `Cc1ccc(-c2c(C)c3c(c(C)c2[C@H](OC(C)(C)C)C(=O)O)CN(C(=O)N2CC4CCCC4C2)C3)cc1` (stereo partly drawn) [Example 82, (2S)-2-(tert-butoxy)-2-(4,7-dimethyl-2-(octahydrocyclopenta[c]pyrrole-2-carbonyl)-6-(p-tolyl)isoindolin-5-yl)acetic acid] was 14 nM. Turning to `Cc1ccc(-c2c(C)c3c(c(C)c2[C@H](OC(C)(C)C)C(=O)O)CN(C(=O)N2[C@H]4CC[C@@H]2CC4)C3)cc1` [Example 83, (S)-2-(2-((1R,4R)-7-azabicyclo[2.2.1]heptane-7-carbonyl)-4,7-dimethyl-6-(p-tolyl)isoindolin-5-yl)-2-(tert-butoxy)acetic acid], the midpoint of inhibition, the IC50, lay at 6 nM.

`Cc1ccc(-c2c(C)c3c(c(C)c2[C@H](OC(C)(C)C)C(=O)O)CN(C(=O)N2CCC(C)(C)CC2)C3)cc1` [Example 84, (S)-2-(tert-butoxy)-2-(2-(4,4-dimethylpiperidine-1-carbonyl)-4,7-dimethyl-6-(p-tolyl)isoindolin-5-yl)acetic acid]: half-maximal inhibition (IC50) required 11 nM. The value for `CC(=O)N1CCN(C(=O)N2Cc3c(C)c(-c4ccc(C)cc4)c([C@H](OC(C)(C)C)C(=O)O)c(C)c3C2)CC1` [Example 85, (S)-2-(2-(4-acetylpiperazine-1-carbonyl)-4,7-dimethyl-6-(p-tolyl)isoindolin-5-yl)-2-(tert-butoxy)acetic acid] was 120 nM. As for `Cc1ccc(-c2c(C)c3c(c(C)c2[C@H](OC(C)(C)C)C(=O)O)CN(C(=O)N2CCNCC2)C3)cc1` [Example 86, (S)-2-(tert-butoxy)-2-(4,7-dimethyl-2-(piperazine-1-carbonyl)-6-(p-tolyl)isoindolin-5-yl)acetic acid], the figure is 1160 nM; as for `Cc1ccc(-c2c(C)c3c(c(C)c2[C@H](OC(C)(C)C)C(=O)O)CN(C(=O)N2CCC[C@@H]2C)C3)cc1` [Example 87, (S)-2-(tert-butoxy)-2-(4,7-dimethyl-2-((S)-2-methylpyrrolidine-1-carbonyl)-6-(p-tolyl)isoindolin-5-yl)acetic acid], 5 nM; as for `Cc1ccc(-c2c(C)c3c(c(C)c2[C@H](OC(C)(C)C)C(=O)O)CN(C(=O)N2C[C@H](C)OC[C@H]2C)C3)cc1` [Example 88, (S)-2-(tert-butoxy)-2-(2-((2S,5R)-2,5-dimethylmorpholine-4-carbonyl)-4,7-dimethyl-6-(p-tolyl)isoindolin-5-yl)acetic acid], 18 nM.

`Cc1ccc(-c2c(C)c3c(c(C)c2[C@H](OC(C)(C)C)C(=O)O)CN(C(=O)N2CCC(F)CC2)C3)cc1` [Example 89, (S)-2-(tert-butoxy)-2-(2-(4-fluoropiperidine-1-carbonyl)-4,7-dimethyl-6-(p-tolyl)isoindolin-5-yl)acetic acid] had an IC50 of 11 nM. Compared with the last molecule, the IC50 is about 1.6-fold lower. As for `Cc1ccc(-c2c(C)c3c(c(C)c2[C@H](OC(C)(C)C)C(=O)O)CN(C(=O)N2CCN(C)C(=O)C2)C3)cc1` [Example 90, (S)-2-(tert-butoxy)-2-(4,7-dimethyl-2-(4-methyl-3-oxopiperazine-1-carbonyl)-6-(p-tolyl)isoindolin-5-yl)acetic acid], the figure is 267 nM; as for `Cc1ccc(-c2c(C)c3c(c(C)c2[C@H](OC(C)(C)C)C(=O)O)CN(C(=O)N2CCOC[C@@H]2C)C3)cc1` [Example 91, (S)-2-(tert-butoxy)-2-(4,7-dimethyl-2-((S)-3-methylmorpholine-4-carbonyl)-6-(p-tolyl)isoindolin-5-yl)acetic acid], 13 nM. As for `Cc1ccc(-c2c(C)c3c(c(C)c2[C@H](OC(C)(C)C)C(=O)O)CN(C(=O)N2CCC(F)(F)CC2)C3)cc1` [Example 92, (S)-2-(tert-butoxy)-2-(2-(4,4-difluoropiperidine-1-carbonyl)-4,7-dimethyl-6-(p-tolyl)isoindolin-5-yl)acetic acid], the figure is 16 nM; as for `Cc1ccc(-c2c(C)c3c(c(C)c2[C@H](OC(C)(C)C)C(=O)O)CN(C(=O)N2CCCC(C)(C)C2)C3)cc1` [Example 93, (S)-2-(tert-butoxy)-2-(2-(3,3-dimethylpiperidine-1-carbonyl)-4,7-dimethyl-6-(p-tolyl)isoindolin-5-yl)acetic acid], 7 nM; as for `Cc1ccc(-c2c(C)c3c(c(C)c2[C@H](OC(C)(C)C)C(=O)O)CN(C(=O)NCC(F)(F)F)C3)cc1` [Example 94, (S)-2-(tert-butoxy)-2-(4,7-dimethyl-6-(p-tolyl)-2-((2,2,2-trifluoroethyl)carbamoyl)isoindolin-5-yl)acetic acid], 44 nM.

For the origin of these results see patent US10112899B2 (ViiV HEALTHCARE UK LIMITED, priority 2014, dated 2018).
